Measurements as given in patent US12234211B2, “Cycloolefin substituted heteroaromatic compounds and their use” (HUTCHISON MEDIPHARMA LIMITED, priority 2017, dated 2025).

Key:
[1] = biological target: T1, IDH1-R132H (Homo sapiens, UniProt O75874, R132H); assay: Fluorescent determination of IDH1-R132H cell activity (2-HG in U87MGR132H cells); assay type: cell-based; conditions: 2-HG inhibition in U87MGR132H cells transfected with IDH1-R132H mutant plasmid
T1 construct: expressed in transfected cells; host or cells: U87MG cells (U87MGR132H)

[2] = biological target: T2, IDH2-R140Q (Homo sapiens, UniProt P48735, R140Q); assay: Fluorescent determination of IDH2-R140Q cell activity (2-HG in U87MGR140Q cells); assay type: cell-based; conditions: 72 hours incubation, read-out: IC50 (2-HG inhibition)
T2 construct: expressed in transfected cells
T2 sequence (P48735 40-452 R140Q): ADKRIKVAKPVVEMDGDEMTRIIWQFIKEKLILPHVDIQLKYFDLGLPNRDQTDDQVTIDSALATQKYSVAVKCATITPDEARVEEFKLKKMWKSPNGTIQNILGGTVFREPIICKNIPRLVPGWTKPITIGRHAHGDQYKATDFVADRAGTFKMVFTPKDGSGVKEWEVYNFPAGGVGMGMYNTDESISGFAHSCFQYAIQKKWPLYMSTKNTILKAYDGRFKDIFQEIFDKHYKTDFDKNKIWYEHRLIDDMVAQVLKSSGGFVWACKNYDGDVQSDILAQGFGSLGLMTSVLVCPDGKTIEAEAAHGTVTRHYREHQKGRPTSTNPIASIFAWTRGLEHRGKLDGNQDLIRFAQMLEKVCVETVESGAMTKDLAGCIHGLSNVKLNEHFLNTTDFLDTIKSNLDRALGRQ

T1 sequence (O75874 whole entry R132H): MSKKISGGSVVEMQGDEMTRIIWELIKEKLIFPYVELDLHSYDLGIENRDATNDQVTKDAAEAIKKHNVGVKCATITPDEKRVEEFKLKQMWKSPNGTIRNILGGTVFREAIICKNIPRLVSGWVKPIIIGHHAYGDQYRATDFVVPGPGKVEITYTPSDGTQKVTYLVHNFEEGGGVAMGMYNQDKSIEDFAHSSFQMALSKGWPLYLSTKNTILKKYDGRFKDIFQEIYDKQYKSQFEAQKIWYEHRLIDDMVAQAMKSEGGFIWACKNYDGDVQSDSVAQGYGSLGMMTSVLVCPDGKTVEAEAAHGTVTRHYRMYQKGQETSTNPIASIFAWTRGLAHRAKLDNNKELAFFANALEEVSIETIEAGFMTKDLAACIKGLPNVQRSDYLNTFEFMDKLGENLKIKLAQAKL

Compound | IC50 [1] [nM] | IC50 [2] [nM]
CC(C)(C)ONc1nc(Nc2ccnc(Cl)c2)nc(C2=C(F)C(O)CCC2)n1 (stereo not shown) [Compound 47] | 5640 | 59
CC(C)Nc1nc(NC2CC(F)(F)C2)nc(C2=C(F)C(O)CCC2)n1 (stereo not shown) [Compound 51] | 6040 | 125
CC(C)(C)ONc1nc(Nc2cc(C#N)ccn2)nc(C2=C(F)C(O)CCC2)n1 (stereo not shown) [Compound 60] | > 10000 | 590
CC(C)(C)ONc1nc(Nc2cc(Cl)ccn2)nc(C2=C(F)C(O)CCC2)n1 (stereo not shown) [Compound 61] | > 10000 | 170
CC(C)Nc1nc(Nc2ccc3ccccc3n2)nc(C2=C(F)C(O)CCC2)n1 (stereo not shown) [Compound 62] | 2700 | 1340
CC(C)Nc1nc(Nc2ccc3c(cnn3C)c2)nc(C2=C(F)C(O)CCC2)n1 (stereo not shown) [Compound 64] | > 10000 | 1630
CC(C)Nc1nc(Nc2ccc3sncc3c2)nc(C2=C(F)C(O)CCC2)n1 (stereo not shown) [Compound 65] | > 10000 | 152
CC(C)(O)CNc1nc(Nc2ccn3nccc3c2)nc(C2=C(F)C(O)CCC2)n1 (stereo not shown) [Compound 67] | > 10000 | 2370
CC(C)(C)ONc1nc(Nc2ccnc(F)c2)nc(C2=C(F)C(O)CCC2)n1 (stereo not shown) [Compound 73] | > 10000 | 64
CC(C)Nc1nc(Nc2ccnc(F)c2)nc(C2=C(F)C(O)CCC2)n1 (stereo not shown) [Compound 74] | 7440 | 34
CC(C)(C)ONc1nc(Nc2cc(C(F)(F)F)ncn2)nc(C2=C(F)C(O)CCC2)n1 (stereo not shown) [Compound 75] | > 10000 | 218
C[C@@H](Nc1nc(NCC2CC2)nc(C2=C(F)C(O)CCC2)n1)C(F)(F)F (stereo partly shown) [Compound 80] | 2700 | 79
CCCNc1nc(N[C@H](C)C(F)(F)F)nc(C2=C(F)C(O)CCC2)n1 (stereo partly shown) [Compound 81] | 3570 | 99

Compounds with a lower IC50 [1], results first:

IC50 [1] [nM] | IC50 [2] [nM] | Compound
2240 | 229 | [2H]C([2H])([2H])C([2H])(Nc1nc(N[C@H](C)C(F)(F)F)nc(C2=C(F)C(O)CCC2)n1)C([2H])([2H])[2H] (stereo partly shown) [Compound 52]
1910 | 164 | OC1CCCCC(c2nc(NC3CC(F)(F)C3)nc(NC3CC(F)(F)C3)n2)=C1F (stereo not shown) [Compound 39, (*)3-(4,6-Bis((3,3-difluorocyclobutyl)amino)-1,3,5-triazin-2-yl)-2-fluorocyclohept-2-en-1-ol]
1680 | 15 | [2H]C([2H])([2H])C([2H])(Nc1nc(Nc2ccnc(C(F)(F)F)c2)nc(C2=C(F)C(O)CCC2)n1)C([2H])([2H])[2H] (stereo not shown) [Compound 54]
1630 | 297 | C[C@@H](Nc1nc(NC(CF)CF)nc(C2=C(F)C(O)CCC2)n1)C(F)(F)F (stereo partly shown) [Compound 41]
1410 | 69 | CC(C)CNc1nc(N[C@H](C)C(F)(F)F)nc(C2=C(F)C(O)CCC2)n1 (stereo partly shown) [Compound 78]
1300 | 106 | C[C@@H](Nc1nc(NCC(F)(F)F)nc(C2=C(F)C(O)CCC2)n1)C(F)(F)F (stereo partly shown) [Compound 79]
628 | 368 | C[C@@H](Nc1nc(N[C@@H]2CCC(F)(F)C2)nc(C2=C(F)C(O)C(F)CC2)n1)C(F)(F)F (single isomer, unassigned) [Compound 233]
450 | 106 | C[C@@H](Nc1nc(NC2CC(F)(F)C2)nc(C2=C(F)C(O)CCCC2)n1)C(F)(F)F (stereo partly shown) [Compound 40]
282 | 203 | C[C@@H](Nc1nc(N[C@H](C)C(F)(F)F)nc(C2=C(F)C(O)CCC2)n1)C(F)(F)F (stereo partly drawn) [Compound 83, 3-(4,6-bis(((R)-1,1,1-trifluoropropan-2-yl)amino)-1,3,5-triazin-2-yl)-2-fluorocyclohex-2-en-1,6,6-D3-1-ol]
181 | 75 | C[C@@H](Nc1nc(N[C@H](C)C(F)(F)F)nc(C2=C(F)C(O)CCC2)n1)C(F)(F)F (stereo partly drawn) [Compound 82, (*)3-(4,6-Bis(((R)-1,1,1-trifluoropropan-2-yl)amino)-1,3,5-triazin-2-yl)-2-fluorocyclohex-2-en-6,6-D2-1-ol]
